According to patent US5158939A, “Method of stimulating the immune systems of animals and compositions useful therefor” (priority 1990, dated 1992):
Entries after “also recorded” stand apart in the source; their conditions may differ. Read-outs that look alike come from different tables or passages of the source.

How the values were obtained:
[1] = system: RAW 264.7 cells; assay: TNF production by RAW 264.7 cells, dilution for 50% killing of indicator cell line L929; format: cell-based, murine; conditions: for Dilution to get 50% killing: Table 1; for Dilution for 50% killing: Table 3
Procedure: The TNF unit is derived by determining how far one can dilute the supernatant of the culture to achieve 50% killing of an indicator cell line.
TNF unit was derived by determining dilution of culture supernatant that kills 50 percent of the indicator cell line.
DPLA was added 2 hours before exposing culture to ReLPS. The ReLPS and DPLA were complexed with bovine serum albumin.^1

[2] = system: 70Z/3 cells; format: cell-based
Procedure: ^1 Corrected for background of 5% fluorescence.
^2 The DPLA stimulated 7OZ/3 preB cells to the extent of from 2.5-6.0
fluorescence at concentrations of 1.0-10 mg/ml. In the competitive
inhibition experiment, the cells were first exposed to DPLA for 2 hours
before adding the ReLPS. In all experiments, the ReLPS and DPLA were
complexed with bovine serum albumin.
In this experiment, 0.1 μg/ml of ReLPS and 3.0 μg/ml of DPLA were
^1 The time of pre/post treatment of 7OZ/3 cells with DPLA relative t
the time of addition of ReLPS are indicated.

CCCCCCC=CCCCCCC(=O)OC(CCCCCCCCCCC)CC(=O)NC1C(OCC2OC(OP(=O)(O)O)C(NC(=O)CC(=O)CCCCCCCCCCC)C(OC(=O)CC(O)CCCCCCC)C2O)OC(CO)C(OP(=O)(O)O)C1OC(=O)CC(O)CCCCCCC (stereo not shown) [DPLA]
Dilution to get 50% killing ([1]; DPLA alone 10 ng/ml): 0
Dilution to get 50% killing ([1]; DPLA alone 100 ng/ml): 0
Dilution to get 50% killing ([1]; DPLA alone 1000 ng/ml): 71
Dilution to get 50% killing ([1]; DPLA alone 10,000 ng/ml): 346
Dilution for 50% killing ([1]; DPLA 10 ng/ml 2 h before ReLPS 1.0 ng/ml): 2287
Dilution for 50% killing ([1]; DPLA 100 ng/ml 2 h before ReLPS 1.0 ng/ml): 269
Dilution for 50% killing ([1]; DPLA 1000 ng/ml 2 h before ReLPS 1.0 ng/ml): 201
Dilution for 50% killing ([1]; DPLA 10000 ng/ml 2 h before ReLPS 1.0 ng/ml): 973
Dilution for 50% killing ([1]; DPLA alone 10 ng/ml, complexed with BSA): < 10
Dilution for 50% killing ([1]; DPLA alone 100 ng/ml, complexed with BSA): 19
Dilution for 50% killing ([1]; DPLA alone 1000 ng/ml, complexed with BSA): 201
Dilution for 50% killing ([1]; DPLA alone 10000 ng/ml, complexed with BSA): 764
Activation (% fluorescence) ([2]; Table 4, DPLA 0.1 μg/ml 2 h before ReLPS 0.1 μg/ml): 52 % fluorescence
Activation (% fluorescence) ([2]; Table 4, DPLA 0.3 μg/ml 2 h before ReLPS 0.1 μg/ml): 45 % fluorescence
Activation (% fluorescence) ([2]; Table 4, DPLA 1.0 μg/ml 2 h before ReLPS 0.1 μg/ml): 26.5 % fluorescence
Activation (% fluorescence) ([2]; Table 4, DPLA 3.0 μg/ml 2 h before ReLPS 0.1 μg/ml): 14 % fluorescence
Activation (% fluorescence) ([2]; Table 5, DPLA 1.0 μg/ml, ReLPS 0): 3.5 % fluorescence
Activation (% fluorescence) ([2]; Table 5, DPLA 1.0 μg/ml, ReLPS 0.1 μg/ml): 28.5 % fluorescence
Activation (% fluorescence) ([2]; Table 5, DPLA 1.0 μg/ml, ReLPS 0.3 μg/ml): 48.5 % fluorescence
Activation (% fluorescence) ([2]; Table 5, DPLA 1.0 μg/ml, ReLPS 1.0 μg/ml): 57.5 % fluorescence
Activation (% fluorescence) ([2]; Table 5, DPLA 1.0 μg/ml, ReLPS 10 μg/ml): 75.5 % fluorescence
Activation (% fluorescence) ([2]; Table 5, DPLA 3.0 μg/ml, ReLPS 0): 2.56 % fluorescence
Activation (% fluorescence) ([2]; Table 5, DPLA 3.0 μg/ml, ReLPS 0.1 μg/ml): 13.5 % fluorescence
Activation (% fluorescence) ([2]; Table 5, DPLA 3.0 μg/ml, ReLPS 0.3 μg/ml): 30 % fluorescence
Activation (% fluorescence) ([2]; Table 5, DPLA 3.0 μg/ml, ReLPS 1.0 μg/ml): 55 % fluorescence
Activation (% fluorescence) ([2]; Table 5, DPLA 3.0 μg/ml, ReLPS 10 μg/ml): 77 % fluorescence
Activation (% fluorescence) ([2]; Table 5, DPLA 10 μg/ml, ReLPS 0.1 μg/ml): 4.5 % fluorescence
Activation (% fluorescence) ([2]; Table 5, DPLA 10 μg/ml, ReLPS 0.3 μg/ml): 11 % fluorescence
Activation (% fluorescence) ([2]; Table 5, DPLA 10 μg/ml, ReLPS 1.0 μg/ml): 25 % fluorescence
Activation (% fluorescence) ([2]; Table 5, DPLA 10 μg/ml, ReLPS 10 μg/ml): 69 % fluorescence
Activation (% fluorescence) ([2]; Table 6, DPLA 3.0 μg/ml added at 0 h relative to ReLPS 0.1 μg/ml): 10.5 % fluorescence
Activation (% fluorescence) ([2]; Table 6, DPLA 3.0 μg/ml added at 2 h relative to ReLPS 0.1 μg/ml): 20 % fluorescence
Activation (% fluorescence) ([2]; Table 6, DPLA 3.0 μg/ml added at 4 h relative to ReLPS 0.1 μg/ml): 24 % fluorescence
Activation (% fluorescence) ([2]; Table 6, DPLA 3.0 μg/ml added at 6 h relative to ReLPS 0.1 μg/ml): 24.5 % fluorescence
Activation (% fluorescence) ([2]; Table 6, DPLA 3.0 μg/ml added at 8 h relative to ReLPS 0.1 μg/ml): 9.5 % fluorescence
Activation (% fluorescence) ([2]; Table 6, DPLA 3.0 μg/ml added at 16 h relative to ReLPS 0.1 μg/ml): 44 % fluorescence
Activation (% fluorescence) ([2]; Table 6, DPLA 3.0 μg/ml added at 20 h relative to ReLPS 0.1 μg/ml): 54 % fluorescence
Activation (% fluorescence) ([2]; Table 6, DPLA 3.0 μg/ml added at 24 h relative to ReLPS 0.1 μg/ml): 55.5 % fluorescence
Activation (% fluorescence) ([2]; Table 6, DPLA 3.0 μg/ml added at -2 h relative to ReLPS 0.1 μg/ml): 11 % fluorescence
antagonism of LPS-induced activation of 70Z/3 pre-B cells ([2]; in words): effective antagonist in the LPS-induced activation of 70Z/3 pre-B cells; also recorded: block LPS-inducted immunoglobulin synthesis by 70Z/3 pre-B cells
